The source of these data is ChEMBL document CHEMBL2074390, “Vectorial transport of bile salts across MDCK cells expressing both rat Na+-taurocholate cotransporting polypeptide and rat bile salt export pump” (Am J Physiol Gastrointest Liver Physiol, 2004).

SMILES strings stand for the structures.

For the test, the system named is MDCK.

Description: TP_TRANSPORTER: transepithelial transport (basal to apical) in Ntcp/Bsep double transfected MDCK cell

`C[C@H](CCC(=O)NCCS(=O)(=O)O)[C@H]1CC[C@H]2[C@@H]3[C@H](O)C[C@@H]4C[C@H](O)CC[C@]4(C)[C@H]3C[C@H](O)[C@]12C`: the Michaelis-Menten constant (Km) is 22.2 µM.

Usually Km stands for the concentration of substrate that gives half-maximal velocity.
